Legend:
Assay type in all cases: in vivo
[1] = system: diamondback moth (Plutella xylostella (L.)); experiment: Test A: control of diamondback moth on mustard plant, spray; details: sprayed at 250 ppm; assessed after 6 days
Protocol: (§1) Test compounds were formulated using a solution containing 10% acetone, […] and 300 ppm Activator 909 non-ionic surfactant (Loveland Products, Loveland, Colorado, USA). The formulated compounds were applied in 1 mL of liquid through an atomizer nozzle positioned 1.27 cm (0.5 inches) above the top of each test unit. Test compounds were sprayed at the rates indicated, and each test was replicated three times.
For evaluating control of diamondback moth (Plutella xylostella (L.)) the test unit consisted of a small open container with a 12-14-day-old mustard plant inside. This was pre-infested with ˜50 neonate larvae that were dispensed into the test unit via corn cob grits using an inoculator. The larvae moved onto the test plant after being dispensed into the test unit.
Test compounds were formulated and sprayed at 250 ppm. After spraying of the formulated test compound, each test unit was allowed to dry for 1 hour and then a black, screened cap was placed on top. The test units were held for 6 days in a growth chamber at 25° C. and 70% relative humidity. Plant feeding damage was then visually assessed based on foliage consumed, and larvae were assessed for mortality.

[2] = system: corn planthopper (Peregrinus maidis (Ashmead)); experiment: whole plant or invertebrate; details: Peregrinus maidis, 144 h, 6 days; for mortality at 10 ppm: sprayed at 10 ppm; for mortality at 50 ppm: sprayed at 50 ppm; for mortality at 250 ppm: sprayed at 250 ppm
Protocol: as §1
For evaluating control of corn planthopper (Peregrinus maidis (Ashmead)) through contact and/or systemic means, the test unit consisted of a small open container with a 3-4-day-old corn (maize) plant inside. White sand was added to the top of the soil prior to application of the test compound.
Test compounds were formulated and sprayed at 250 and/or 50 ppm and/or 10 ppm. After spraying of the formulated test compound, the test units were allowed to dry for 1 h before they were post-infested with ˜15-20 nymphs (18-to-21-day-old). A black, screened cap was placed on the top of each test unit, and the test units were held for 6 days in a growth chamber at 22-24° C. and 50-70% relative humidity. Each test unit was then visually assessed for insect mortality.

[3] = system: green peach aphid (Myzus persicae (Sulzer)); experiment: Test D: control of green peach aphid on radish plant, spray; details: Myzus persicae, 144 h, 6 days; for mortality at 50 ppm: sprayed at 50 ppm; for mortality at 250 ppm: sprayed at 250 ppm
Protocol: as §1
For evaluating control of green peach aphid (Myzus persicae (Sulzer)) through contact and/or systemic means, the test unit consisted of a small open container with a 12-15-day-old radish plant inside. This was pre-infested by placing on a leaf of the test plant 30-40 aphids on a piece of leaf excised from a culture plant (cut-leaf method). The aphids moved onto the test plant as the leaf piece desiccated. After pre-infestation, the soil of the test unit was covered with a layer of sand.
[…] After spraying of the formulated test compound, each test unit was allowed to dry for 1 hour and then a black, screened cap was placed on top. The test units were held for 6 days in a growth chamber at 19-21° C. and 50-70% relative humidity. Each test unit was then visually assessed for insect mortality.

[4] = system: cotton melon aphid (Aphis gossypii (Glover)); experiment: whole plant or invertebrate; details: Aphis gossypii, 144 h, 6 days; for mortality at 50 ppm: sprayed at 50 ppm; for mortality at 250 ppm: sprayed at 250 ppm
Protocol: as §1
[…] This was pre-infested with 30-40 insects on a piece of leaf according to the cut-leaf method, and the soil of the test unit was covered with a layer of sand.
Test compounds were formulated and sprayed at 250 and/or 50 ppm. After spraying, the test units were maintained in a growth chamber for 6 days at 19° C. and 70% relative humidity. Each test unit was then visually assessed for insect mortality.

[5] = system: sweetpotato whitefly (Bemisia tabaci (Gennadius)); experiment: Test F: control of sweetpotato whitefly on cotton plant, spray; details: 312 h, 13 days; for mortality at 250 ppm: sprayed at 250 ppm; for mortality at 50 ppm: sprayed at 50 ppm
Protocol: as §1
For evaluating control of the sweetpotato whitefly (Bemisia tabaci (Gennadius)) through contact and/or systemic means, the test unit consisted of a small open container with a 12-14-day-old cotton plant inside. Prior to the spray application, both cotyledons were removed from the plant, leaving one true leaf for the assay. Adult whiteflies were allowed to lay eggs on the plant and then were removed from the test unit. Cotton plants infested with at least 15 eggs were submitted to the test for spraying.
Test compounds were formulated and sprayed at 250 and/or 50 ppm. After spraying, the test units were allowed to dry for 1 hour. The cylinders were then removed, and the units were taken to a growth chamber and held for 13 days at 28° C. and 50-70% relative humidity. Each test unit was then visually assessed for insect mortality.

Row | Compound | control efficacy (40% or less feeding damage and/or 100% mortality) [1] | mortality at 10 ppm [2] [%] | mortality at 50 ppm [2] [%] | mortality at 250 ppm [2] [%] | mortality at 50 ppm [3] [%] | mortality at 250 ppm [3] [%] | mortality at 50 ppm [4] [%] | mortality at 250 ppm [4] [%] | mortality at 250 ppm [5] [%] | mortality at 50 ppm [5] [%]
1 | COC(c1ccc(SC(F)(F)F)cc1)c1c(Cl)cncc1-n1nccn1 (single isomer, unassigned) [Compound 130] | very good to excellent levels of control efficacy | ≥ 80 | ≥ 80 | ≥ 80 | ≥ 80 | ≥ 80 | ≥ 80 | ≥ 80 | – | –
2 | Fc1cncc(-n2nccn2)c1C(F)c1ccc(SC(F)(F)F)cc1 (stereo not drawn) [Compound 3] | very good to excellent levels of control efficacy | – | ≥ 80 | ≥ 80 | ≥ 80 | ≥ 80 | ≥ 80 | ≥ 80 | ≥ 70 | –
3 | Fc1cncc(-n2cncn2)c1C(F)c1ccc(C(F)(F)F)cc1 (stereo not drawn) [Compound 18] | very good to excellent levels of control efficacy | – | ≥ 80 | ≥ 80 | ≥ 80 | ≥ 80 | – | – | – | –
4 | Fc1cncc(-n2nccn2)c1C(F)c1ccc(C(F)(F)F)cc1 (stereo not drawn) [Compound 20] | very good to excellent levels of control efficacy | – | ≥ 80 | ≥ 80 | ≥ 80 | ≥ 80 | ≥ 80 | ≥ 80 | – | –
5 | Fc1cncc(-c2ccco2)c1C(F)c1ccc(OC(F)(F)F)cc1 (stereo not drawn) [Compound 22] | very good to excellent levels of control efficacy | ≥ 80 | ≥ 80 | ≥ 80 | – | ≥ 80 | ≥ 80 | ≥ 80 | – | –
6 | Fc1cncc(-c2ccoc2)c1C(F)c1ccc(OC(F)(F)F)cc1 (stereo not drawn) [Compound 23] | very good to excellent levels of control efficacy | – | ≥ 80 | ≥ 80 | – | ≥ 80 | – | – | – | –
7 | Fc1cncc(-c2nnco2)c1C(F)c1ccc(OC(F)(F)F)cc1 (stereo not drawn) [Compound 30] | very good to excellent levels of control efficacy | ≥ 80 | ≥ 80 | ≥ 80 | – | ≥ 80 | – | – | – | –
8 | Fc1cncc(-c2cnco2)c1C(F)c1ccc(OC(F)(F)F)cc1 (stereo not drawn) [Compound 34] | very good to excellent levels of control efficacy | – | ≥ 80 | ≥ 80 | ≥ 80 | ≥ 80 | ≥ 80 | ≥ 80 | – | –
9 | N#Cc1cncc(-n2nccn2)c1C(F)c1ccc(OC(F)(F)F)cc1 (stereo not drawn) [Compound 48] | very good to excellent levels of control efficacy | ≥ 80 | ≥ 80 | – | ≥ 80 | ≥ 80 | – | – | – | –
10 | Fc1cncc(-c2ncco2)c1C(F)c1ccc(SC(F)(F)F)cc1 (stereo not drawn) [Compound 78] | very good to excellent levels of control efficacy | ≥ 80 | ≥ 80 | ≥ 80 | ≥ 80 | ≥ 80 | ≥ 80 | ≥ 80 | ≥ 70 | ≥ 70
11 | FC(c1ccc(SC(F)(F)F)cc1)c1c(Cl)cncc1-n1nccn1 (stereo not drawn) [Compound 89] | very good to excellent levels of control efficacy | ≥ 80 | ≥ 80 | ≥ 80 | ≥ 80 | ≥ 80 | ≥ 80 | ≥ 80 | ≥ 70 | ≥ 70
12 | Fc1cncc(-n2nccn2)c1C(F)c1ccc(Br)cc1 (stereo not drawn) [Compound 92] | very good to excellent levels of control efficacy | ≥ 80 | ≥ 80 | ≥ 80 | – | – | ≥ 80 | ≥ 80 | ≥ 70 | ≥ 70
13 | FC(c1ccc(SC(F)(F)F)cc1)c1c(Cl)cncc1-c1cnco1 (stereo not drawn) [Compound 105] | very good to excellent levels of control efficacy | – | ≥ 80 | ≥ 80 | – | – | ≥ 80 | ≥ 80 | – | –
14 | COC(c1ccc(SC(F)F)cc1)c1c(F)cncc1-n1nccn1 (stereo not drawn) [Compound 118] | very good to excellent levels of control efficacy | – | – | – | ≥ 80 | ≥ 80 | ≥ 80 | ≥ 80 | ≥ 70 | ≥ 70
15 | COC(c1ccc(SC(F)(F)F)cc1)c1c(I)cncc1-n1nccn1 (stereo not drawn) [Compound 120] | very good to excellent levels of control efficacy | – | ≥ 80 | ≥ 80 | – | – | – | – | ≥ 70 | ≥ 70
16 | COC(c1ccc(SC(F)(F)F)cc1)c1c(F)cncc1-n1nccn1 (stereo not drawn) [Compound 123] | very good to excellent levels of control efficacy | ≥ 80 | ≥ 80 | ≥ 80 | ≥ 80 | ≥ 80 | ≥ 80 | ≥ 80 | ≥ 70 | ≥ 70
17 | CO[C@H](c1ccc(OC(F)(F)F)cc1)c1c(F)cncc1-n1nccn1 [Compound 125, 3-fluoro-4-[(R)-methoxy-[4-(trifluoromethoxy)phenyl]methyl]-5-(triazol-2 yl)pyridine] | very good to excellent levels of control efficacy | ≥ 80 | ≥ 80 | ≥ 80 | ≥ 80 | ≥ 80 | ≥ 80 | ≥ 80 | ≥ 70 | ≥ 70
18 | COC(c1ccc(SC(F)(F)F)cc1)c1c(Br)cncc1-n1nccn1 (stereo not drawn) [Compound 133] | very good to excellent levels of control efficacy | – | – | – | – | – | ≥ 80 | ≥ 80 | ≥ 70 | ≥ 70

Source: patent US12568969B2, “Pyridine compounds for controlling invertebrate pests” (FMC Corporation, priority 2020, dated 2026)
